This is an account of results in US20250115598A1 (Anaxis Pharma Pty Ltd, priority 2021, published 2025).

For assay [1], the target named is endogenous MLKL in MDF (Mus musculus (Mouse), UniProt Q9D2Y4). Briefly: Degradation assay: endogenous MLKL in MDF (western blot). The following applies: MDF cells, 24 h incubation with compound, MLKL adjusted for loading with GAPDH, normalized to DMSO only control, read-out: Degradation of endogenous MLKL in MDF (DC50 cell-based assay). The essentials:
(§1)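 MDF (seeded the day before) or U937 cells were treated 24 h at 37 °C, 10% CO2 with compound at 10, 2, 0.4, 0.08 and 0.016 μM final. Endogenous MLKL was quantified by western blot (anti-MLKL 3H1), normalized to GAPDH. Percent degradation was taken relative to DMSO control.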

Assay [2] deals with human MLKL (full length) (Homo sapiens (Human), UniProt Q8NB16). Briefly: KINOMEscan binding assay, human MLKL (full length). The following applies: hMLKL, Table 25; read-out: MLKL (KD). The essentials:
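Binding constants were derived by fitting qPCR-quantified bead-retained kinase against compound concentration to the Hill equation, slope set at −1. Compound series were 3-fold over 11 points with 1% DMSO; most top concentrations were 30,000 nM. Kinases were T7-phage-tagged or HEK-293-produced with DNA tags.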

For assay [3], the system named is Immortalised Mouse Dermal Fibroblasts (MDFs). The experiment in a line: Cellular assay: inhibition of TSI induced necroptosis, CellTitre-Glo viability. As to conditions: Mus musculus, Fibroblast; MDF, 3 hours TSI cocktail, Table 27; read-out: Inhibition of TSI-induced necroptosis (IC50 cell-based assay) in MDF. The essentials: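 Immortalised mouse dermal fibroblasts (2200 cells/well) pretreated 30 min with compound, 10-point 1:3 series from 36 μM, 0.3% DMSO. Then 3 h at 37° C. with TNF (100 ng/ml), Smac mimetic (500 nM) and IDN-6556 (10 μM). CellTiter-Glo luminescence normalised to DMSO (100%) and DMSO+TSI (0%); IC50 from 4-parameter logistic fit.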

The target of assay [4] is endogenous MLKL in U937 (Homo sapiens (Human), UniProt Q8NB16). The experiment in a line: Degradation assay: endogenous MLKL in U937 (western blot). As to conditions: U937, 24 h incubation, read-out: Degradation of endogenous MLKL in U937 (DC50 cell-based assay). The essentials: as §1
endogenous MLKL in U937, sequence (Q8NB16 whole entry): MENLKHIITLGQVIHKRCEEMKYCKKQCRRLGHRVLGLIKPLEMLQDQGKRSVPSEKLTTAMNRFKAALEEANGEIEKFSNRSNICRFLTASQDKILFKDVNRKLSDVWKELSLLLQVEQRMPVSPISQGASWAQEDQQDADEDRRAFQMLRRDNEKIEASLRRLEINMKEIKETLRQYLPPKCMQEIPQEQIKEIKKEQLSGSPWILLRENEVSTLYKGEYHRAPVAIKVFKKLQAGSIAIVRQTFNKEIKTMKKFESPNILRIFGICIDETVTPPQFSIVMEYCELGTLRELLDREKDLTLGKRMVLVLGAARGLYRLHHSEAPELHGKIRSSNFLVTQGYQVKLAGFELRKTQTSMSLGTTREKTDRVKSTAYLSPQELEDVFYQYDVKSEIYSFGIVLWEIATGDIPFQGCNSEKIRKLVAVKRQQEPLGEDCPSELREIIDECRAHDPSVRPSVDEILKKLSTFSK

The structures appear in SMILES notation.

human MLKL (full length), sequence (Q8NB16 whole entry): as above
endogenous MLKL in MDF, sequence (Q9D2Y4 whole entry): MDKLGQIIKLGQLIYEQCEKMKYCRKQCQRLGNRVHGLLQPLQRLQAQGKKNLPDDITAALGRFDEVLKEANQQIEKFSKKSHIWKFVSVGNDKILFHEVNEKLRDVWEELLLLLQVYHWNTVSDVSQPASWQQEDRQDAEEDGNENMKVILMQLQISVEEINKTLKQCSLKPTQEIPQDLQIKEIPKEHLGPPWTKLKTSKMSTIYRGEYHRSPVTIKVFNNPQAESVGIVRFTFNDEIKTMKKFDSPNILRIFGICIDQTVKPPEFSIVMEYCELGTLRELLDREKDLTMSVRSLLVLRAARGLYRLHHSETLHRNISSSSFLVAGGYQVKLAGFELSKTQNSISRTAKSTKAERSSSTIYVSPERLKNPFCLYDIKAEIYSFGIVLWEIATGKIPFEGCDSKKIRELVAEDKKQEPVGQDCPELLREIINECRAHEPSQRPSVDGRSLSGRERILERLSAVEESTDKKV

Regarding `Cn1nc(-c2ccc(NS(=O)(=O)CC(F)(F)F)c(F)c2)c2c(N)ncc(-c3cnn(C4CCN(C(=O)[C@H]5C[C@H](Nc6cccc7c6C(=O)N(C6CCC(=O)NC6=O)C7=O)C5)CC4)c3)c21` (stereo partly drawn) [Compound 1134, N-{4-[4-amino-1-methyl-7-(1-{1-[(trans)-3-{[2-(2,6-dioxopiperidin-3-yl)-1,3-dioxo-2,3-dihydro-1H-isoindol-4-yl]amino}cyclobutanecarbonyl]piperidin-4-yl}-1H-pyrazol-4-yl)-1H-pyrazolo[4,3-c]pyridin-3-yl]-2-fluorophenyl}-2,2,2-trifluoroethane-1-sulfonamide], the DC50 in assay [1] and in assay [4] was < 1000 nM throughout. The dissociation constant Kd in assay [2] is < 10 nM. Further, the concentration for half-maximal inhibition (IC50) in assay [3] was < 1000 nM.

For the compound `C[C@H](Oc1cc(-c2nn(C)c3c(-c4cnn(C5CCN(C(=O)C6CN(c7cccc8c7C(=O)N(C7CCC(=O)NC7=O)C8=O)C6)CC5)c4)cnc(N)c23)ccc1NS(=O)(=O)C(F)F)c1ccc(F)cc1` (stereo partly drawn) [Compound 1051, N-(4-{4-amino-7-[1-(1-{1-[2-(2,6-dioxopiperidin-3-yl)-1,3-dioxo-2,3-dihydro-1H-isoindol-4-yl]azetidine-3-carbonyl}piperidin-4-yl)-1H-pyrazol-4-yl]-1-methyl-1H-pyrazolo[4,3-c]pyridin-3-yl}-2-[(1S)-1-(4-fluorophenyl)ethoxy]phenyl)-1,1-difluoromethane-sulfonamide], the half-maximal degradation concentration (DC50) in assay [1] is < 1000 nM; in assay [4], 1000 to 10000 nM. Also, the Kd in assay [2] was 10 to 1000 nM. Further, the IC50 in assay [3] fell in the range of 1000 to 10000 nM.

Turning to `Cn1nc(-c2ccc(NS(=O)(=O)C(F)F)c(F)c2)c2c(N)ncc(-c3cnn(C4CCN(C(=O)CCC5CCN(c6cccc7c6C(=O)N(C6CCC(=O)NC6=O)C7=O)CC5)CC4)c3)c21` (centres unmarked) [Compound 1113, N-[4-(4-amino-7-{1-[1-(3-{1-[2-(2,6-dioxopiperidin-3-yl)-1,3-dioxo-2,3-dihydro-1H-isoindol-4-yl]piperidin-4-yl}propanoyl)piperidin-4-yl]-1H-pyrazol-4-yl}-1-methyl-1H-pyrazolo[4,3-c]pyridin-3-yl}-2-fluorophenyl]-1,1-difluoromethanesulfonamide], the DC50 in assay [1] and in assay [4] was < 1000 nM throughout. Further, the dissociation constant (Kd) in assay [2] is < 10 nM. For the same compound, in assay [3], the half-maximal inhibitory concentration (IC50) was 1000 to 10000 nM.

On to `C[C@H](Oc1cc(-c2nn(C)c3c(-c4cnn(C5CCN(C(=O)c6ccc(CNc7cccc8c7C(=O)N(C7CCC(=O)NC7=O)C8=O)cc6)CC5)c4)cnc(N)c23)ccc1NS(=O)(=O)C(F)F)c1ccc(F)cc1` (stereo partly drawn) [Compound 1093, N-{4-[4-amino-7-(1-{1-[4-({[2-(2,6-dioxopiperidin-3-yl)-1,3-dioxo-2,3-dihydro-1H-isoindol-4-yl]amino}methyl)benzoyl]piperidin-4-yl}-1H-pyrazol-4-yl)-1-methyl-1H-pyrazolo[4,3-c]pyridin-3-yl]-2-[(1S)-1-(4-fluorophenyl)ethoxy]phenyl}-1,1-difluoromethanesulfonamide], for which the DC50 in assay [1] and in assay [4] was < 1000 nM in each case. Also, in assay [2], the dissociation constant Kd lay within 10 to 1000 nM. Besides, in assay [3], the IC50 was < 1000 nM.

In the case of `C[C@H](Oc1cc(-c2nn(C)c3c(-c4cnn(C5CCN(C(=O)COC6CCN(c7cccc8c7C(=O)N(C7CCC(=O)NC7=O)C8=O)CC6)CC5)c4)cnc(N)c23)ccc1NS(=O)(=O)C(F)F)c1ccc(F)cc1` (stereo partly drawn) [Compound 1072, N-{4-[4-amino-7-(1-{1-[2-({1-[2-(2,6-dioxopiperidin-3-yl)-1,3-dioxo-2,3-dihydro-1H-isoindol-4-yl]piperidin-4-yl}oxy)acetyl]piperidin-4-yl}-1H-pyrazol-4-yl)-1-methyl-1H-pyrazolo[4,3-c]pyridin-3-yl]-2-[(1S)-1-(4-fluorophenyl)ethoxy]phenyl}-1,1-difluoromethane-sulfonamide], the DC50 in assay [1] and in assay [4] was < 1000 nM in each case. Further, the Kd in assay [2] was < 10 nM. In addition, the 50% inhibitory concentration (IC50) in assay [3] was 1000 to 10000 nM.

`C[C@H](Oc1cc(-c2nn(C)c3c(-c4cnn(C5CCN(C(=O)C6CCC(c7cccc8c7C(=O)N(C7CCC(=O)NC7=O)C8=O)CC6)CC5)c4)cnc(N)c23)ccc1NS(=O)(=O)C(F)F)c1ccc(F)cc1` (stereo partly drawn) [Compound 1125, N-(4-{4-amino-7-[1-(1-{4-[2-(2,6-dioxopiperidin-3-yl)-1,3-dioxo-2,3-dihydro-1H-isoindol-4-yl]cyclohexane-carbonyl}piperidin-4-yl)-1H-pyrazol-4-yl]-1-methyl-1H-pyrazolo[4,3-c]pyridin-3-yl}-2-[(1S)-1-(4-fluorophenyl)ethoxy]phenyl)-1,1-difluoromethanesulfonamide]: the half-maximal degradation concentration (DC50) in assay [1] and in assay [4] was < 1000 nM each time. The Kd in assay [2] was 10 to 1000 nM. In assay [3], the 50% inhibitory concentration (IC50) was < 1000 nM.

For `C[C@H](Oc1cc(-c2nn(C)c3c(-c4cnn(C5CCN(CCc6ccc7c(c6)C(=O)N(C6CCC(=O)NC6=O)C7=O)CC5)c4)cnc(N)c23)ccc1NS(=O)(=O)C(F)F)c1ccc(F)cc1` (stereo partly drawn) [Compound 1123, N-(4-{4-amino-7-[1-(1-{2-[2-(2,6-dioxopiperidin-3-yl)-1,3-dioxo-2,3-dihydro-1H-isoindol-5-yl]ethyl}piperidin-4-yl)-1H-pyrazol-4-yl]-1-methyl-1H-pyrazolo[4,3-c]pyridin-3-yl}-2-[(1S)-1-(4-fluorophenyl)ethoxy]phenyl)-1,1-difluoromethanesulfonamide], the 50% degradation concentration (DC50) in assay [1] and in assay [4] was < 1000 nM throughout. The Kd in assay [2] is < 10 nM. Further, the half-maximal inhibitory concentration (IC50) in assay [3] was < 1000 nM.

Regarding `C[C@H](Oc1cc(-c2nn(C)c3c(-c4cnn(C5CCN(C(=O)C6CCC(c7ccc8c(c7)C(=O)N(C7CCC(=O)NC7=O)C8=O)CC6)CC5)c4)cnc(N)c23)ccc1NS(=O)(=O)C(F)F)c1ccc(F)cc1` (stereo partly drawn) [Compound 1126, N-(4-{4-amino-7-[1-(1-{4-[2-(2,6-dioxopiperidin-3-yl)-1,3-dioxo-2,3-dihydro-1H-isoindol-5-yl]cyclohexanecarbonyl}piperidin-4-yl)-1H-pyrazol-4-yl]-1-methyl-1H-pyrazolo[4,3-c]pyridin-3-yl}-2-[(1S)-1-(4-fluorophenyl)ethoxy]phenyl)-1,1-difluoromethanesulfonamide], the half-maximal degradation concentration (DC50) in assay [1] and in assay [4] was < 1000 nM each time. Further, the Kd in assay [2] is < 10 nM. The IC50 in assay [3] was < 1000 nM.

`C[C@H](Oc1cc(-c2nn(C)c3c(-c4cnn(C5CCN(C(=O)COc6cccc7c6C(=O)N(C6CCC(=O)NC6=O)C7=O)CC5)c4)cnc(N)c23)ccc1NS(=O)(=O)C(F)F)c1ccc(F)cc1` (stereo partly drawn) [Compound 1082, N-[4-(4-amino-7-{1-[1-(2-{[2-(2,6-dioxopiperidin-3-yl)-1,3-dioxo-2,3-dihydro-1H-isoindol-4-yl]oxy}acetyl)piperidin-4-yl]-1H-pyrazol-4-yl}-1-methyl-1H-pyrazolo[4,3-c]pyridin-3-yl)-^2-[(1S)-1-(4-fluorophenyl)ethoxy]phenyl]-1,1-difluoromethanesulfonamide]: the values for the half-maximal degradation concentration (DC50) in assay [1] and in assay [4] were 1000 to 10000 nM and < 1000 nM, respectively. The Kd in assay [2] is < 10 nM. Moreover, in assay [3], the concentration for half-maximal inhibition (IC50) fell in the range of 1000 to 10000 nM.

Consider `C[C@H](Oc1cc(-c2nn(C)c3c(-c4cnn(C5CCN(C(=O)CC6CCN(c7cccc8c7C(=O)N(C7CCC(=O)NC7=O)C8=O)CC6)CC5)c4)cnc(N)c23)ccc1NS(=O)(=O)C(F)F)c1ccc(F)cc1` (stereo partly drawn) [Compound 1048, N-[4-(4-amino-7-{1-[1-(2-{1-[2-(2,6-dioxopiperidin-3-yl)-1,3-dioxo-2,3-dihydro-1H-isoindol-4-yl]piperidin-4-yl}acetyl)piperidin-4-yl]-1H-pyrazol-4-yl}-1-methyl-1H-pyrazolo[4,3-c]pyridin-3-yl)-2-[(1S)-1-(4-fluorophenyl)ethoxy]phenyl]-1,1-difluoromethanesulfonamide], for which the half-maximal degradation concentration (DC50) was < 1000 nM in assay [1] and 1000 to 10000 nM in assay [4]. Also, in assay [2], the dissociation constant (Kd) was < 10 nM. Further, the IC50 in assay [3] is < 1000 nM.

Regarding `C[C@H](Oc1cc(-c2nn(C)c3c(-c4cnn(C5CCN(CCCN6CCN(C(=O)COc7cccc8c7C(=O)N(C7CCC(=O)NC7=O)C8=O)CC6)CC5)c4)cnc(N)c23)ccc1NS(=O)(=O)C(F)F)c1ccc(F)cc1` (stereo partly drawn) [Compound 1099, N-(4-{4-amino-7-[1-(1-{3-[4-(2-{[2-(2,6-dioxopiperidin-3-yl)-1,3-dioxo-2,3-dihydro-1H-isoindol-4-yl]oxy}acetyl)piperazin-1-yl]propyl}piperidin-4-yl)-1H-pyrazol-4-yl]-1-methyl-1H-pyrazolo[4,3-c]pyridin-3-yl}-2-[(1S)-1-(4-fluorophenyl)ethoxy]phenyl)-1,1-difluoromethanesulfonamide], the half-maximal degradation concentration (DC50) in assay [1] is 1000 to 10000 nM; in assay [4], < 1000 nM. Moreover, the Kd in assay [2] was < 10 nM. In addition, the concentration for half-maximal inhibition (IC50) in assay [3] was 1000 to 10000 nM.
